According to PubChem BioAssay AID248 (DTP/NCI, 2004):
Values joined by “and” are separate entries in the source; they are usually repeats but may differ in a detail not shown here. Identical values can stand only once. Toxic doses and inconclusive results are not listed. Rule as the data show it: active = T/C of 150% or more; inactive = T/C below 125%.

Test system: L1210 leukemia ip in BDF1 mice, survival T/C
Test: NCI In Vivo Anticancer Drug Screen. Data for tumor model L1210 Leukemia (intraperitoneal) in B6D2F1 (BDF1) mice
Conditions: endpoint: mean survival time, higher = longer survival
How it was run: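 Value reflects the ratio of survival in compound-treated mice to survival in vehicle-treated controls, with both groups carrying the same transplanted tumor.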

[1] = dose: 100.0 mg/kg/injection, schedule: Q01DX001 (ip), vehicle: other
[2] = dose: 25.0 mg/kg/injection, schedule: Q01DX009 (ip), vehicle: saline with Tween-80
[3] = dose: 50.0 mg/kg/injection, schedule: Q01DX009 (ip), vehicle: saline with Tween-80
[4] = dose: 100.0 mg/kg/injection, schedule: Q01DX009 (ip), vehicle: saline with Tween-80
[5] = dose: 100.0 mg/kg/injection, schedule: Q01DX001 (ip), vehicle: saline
[6] = dose: 200.0 mg/kg/injection, schedule: Q01DX001 (ip), vehicle: saline
[7] = dose: 100.0 mg/kg/injection, schedule: Q01DX001 (ip), vehicle: carboxymethylcellulose (CMC)
[8] = dose: 200.0 mg/kg/injection, schedule: Q01DX001 (ip), vehicle: carboxymethylcellulose (CMC)
[9] = dose: 400.0 mg/kg/injection, schedule: Q01DX001 (ip), vehicle: carboxymethylcellulose (CMC)
[10] = dose: 100.0 mg/kg/injection, schedule: Q01DX009 (ip), vehicle: Klucel (hydroxypropylcellulose) (HPC)
[11] = dose: 100.0 mg/kg/injection, schedule: Q04DX003 (ip), vehicle: Klucel (hydroxypropylcellulose) (HPC)
[12] = dose: 200.0 mg/kg/injection, schedule: Q01DX009 (ip), vehicle: Klucel (hydroxypropylcellulose) (HPC)
[13] = dose: 200.0 mg/kg/injection, schedule: Q04DX003 (ip), vehicle: Klucel (hydroxypropylcellulose) (HPC)
[14] = dose: 400.0 mg/kg/injection, schedule: Q01DX009 (ip), vehicle: Klucel (hydroxypropylcellulose) (HPC)
[15] = dose: 400.0 mg/kg/injection, schedule: Q04DX003 (ip), vehicle: Klucel (hydroxypropylcellulose) (HPC)
[16] = dose: 400.0 mg/kg/injection, schedule: Q01DX001 (ip), vehicle: saline
[17] = dose: 100.0 mg/kg/injection, schedule: Q04DX003 (ip), vehicle: saline with Tween-80
[18] = dose: 200.0 mg/kg/injection, schedule: Q04DX003 (ip), vehicle: saline with Tween-80
[19] = dose: 400.0 mg/kg/injection, schedule: Q04DX003 (ip), vehicle: saline with Tween-80

Measured: T/C

O=P(Oc1ccccc1)(N1CCCCC1)N1CCCCC1
inactive: dose: 25.0 mg/kg/injection, schedule: Q01DX001 (ip), vehicle: other 96 % of control | dose: 25.0 mg/kg/injection, schedule: Q01DX009 (ip), vehicle: carboxymethylcellulose (CMC) 97 % of control and 101 % of control | dose: 25.0 mg/kg/injection, schedule: Q04DX003 (ip), vehicle: other 97 % of control | dose: 50.0 mg/kg/injection, schedule: Q01DX001 (ip), vehicle: other 91 % of control | dose: 50.0 mg/kg/injection, schedule: Q04DX003 (ip), vehicle: other 108 % of control | [1] 106 % of control | dose: 100.0 mg/kg/injection, schedule: Q04DX002 (ip), vehicle: carboxymethylcellulose (CMC) 95 % of control and 100 % of control | dose: 100.0 mg/kg/injection, schedule: Q04DX003 (ip), vehicle: other 93 % of control | dose: 200.0 mg/kg/injection, schedule: Q04DX002 (ip), vehicle: carboxymethylcellulose (CMC) 104 % of control and 106 % of control | dose: 200.0 mg/kg/injection, schedule: Q04DX003 (ip), vehicle: carboxymethylcellulose (CMC) 92 % of control

CCc1ccc(C(C)=O)o1
inactive: [1] 104 % of control | dose: 200.0 mg/kg/injection, schedule: Q01DX001 (ip), vehicle: other 108 % of control | dose: 400.0 mg/kg/injection, schedule: Q01DX001 (ip), vehicle: other 111 % of control

O=C(O)c1cc([N+](=O)[O-])ccc1Oc1cccc(Cl)c1
inactive: dose: 75.0 mg/kg/injection, schedule: Q01DX001 (ip), vehicle: saline 96 % of control | dose: 150.0 mg/kg/injection, schedule: Q01DX001 (ip), vehicle: saline 95 % of control | dose: 300.0 mg/kg/injection, schedule: Q01DX001 (ip), vehicle: saline 96 % of control

C=C(C)COB(OCC(=C)C)OCC(=C)C
inactive: [2] 100 % of control | [3] 105 % of control | [4] 94 % of control

CN1CCC(O)(c2ccccc2)C(C(=O)c2ccccc2)C1 (configuration not stated)
inactive: [5] 101 % of control | [6] 93 % of control

Cc1cc(O)c2c(c1O)C(=O)C13C(=C2O)C(=O)C2C(O)C1C1C(O)C3C(=O)C3=C(O)c4c(O)cc(C)c(O)c4C(=O)C321 (configuration not stated)
inactive: dose: 12.5 mg/kg/injection, schedule: Q04DX003 (ip), vehicle: saline with Tween-80 93 % of control | dose: 25.0 mg/kg/injection, schedule: Q04DX003 (ip), vehicle: saline with Tween-80 106 % of control

CC(=O)Nc1ccc(Cl)c(F)c1Cl
inactive: dose: 100.0 mg/kg/injection, schedule: Q04DX002 (ip), vehicle: Klucel (hydroxypropylcellulose) (HPC) 104 % of control | dose: 200.0 mg/kg/injection, schedule: Q04DX002 (ip), vehicle: Klucel (hydroxypropylcellulose) (HPC) 93 % of control | dose: 400.0 mg/kg/injection, schedule: Q04DX002 (ip), vehicle: Klucel (hydroxypropylcellulose) (HPC) 107 % of control

CC[N+](CC)(CC)CCNC(c1ccccc1)C(Cl)(Cl)Cl (configuration not stated)
inactive: dose: 12.5 mg/kg/injection, schedule: Q01DX001 (ip), vehicle: saline 97 % of control | dose: 25.0 mg/kg/injection, schedule: Q01DX001 (ip), vehicle: saline 87 % of control | dose: 50.0 mg/kg/injection, schedule: Q01DX001 (ip), vehicle: saline 95 % of control

CC(=O)Nc1ccc2c(c1)-c1ccc(F)cc1C2=O
inactive: [7] 96 % of control | [8] 103 % of control | [9] 89 % of control

CN1c2ccccc2Sc2ccccc21
inactive: dose: 50.0 mg/kg/injection, schedule: Q01DX001 (ip), vehicle: carboxymethylcellulose (CMC) 94 % of control | [7] 96 % of control | [8] 107 % of control

O=[N+]([O-])c1cccc(S(=O)(=O)N2CCN(S(=O)(=O)c3cccc([N+](=O)[O-])c3)C2)c1
inactive: [10] 95 % of control | [11] 97 % of control | [12] 103 % of control | [13] 93 % of control | [14] 97 % of control | [15] 97 % of control

CCC1OCCN1C(C)C (configuration not stated)
inactive: dose: 26.0 mg/kg/injection, schedule: Q01DX Z (ip), vehicle: other 105 % of control | dose: 90.0 mg/kg/injection, schedule: Q01DX Z (ip), vehicle: other 111 % of control | [5] 102 % of control and 104 % of control | dose: 135.0 mg/kg/injection, schedule: Q01DX Z (ip), vehicle: other 95 % of control | [6] 96 % of control and 104 % of control | [16] 92 % of control and 93 % of control

CCCCCCCCNc1ccc(Cl)cc1
inactive: dose: 100.0 mg/kg/injection, schedule: Q01DX001 (ip), vehicle: saline + alcohol 91 % of control | dose: 200.0 mg/kg/injection, schedule: Q01DX001 (ip), vehicle: saline + alcohol 102 % of control | dose: 400.0 mg/kg/injection, schedule: Q01DX001 (ip), vehicle: saline + alcohol 98 % of control

Cc1ccc(S(=O)(=O)N(Cc2ccc([N+](=O)[O-])cc2)c2ccccc2)cc1
inactive: [7] 103 % of control | [8] 105 % of control | [9] 100 % of control

C1CCC(CCCCC2CCC(CCCCC3CCCCC3)CC2)CC1 (configuration not stated)
inactive: [17] 91 % of control | [18] 93 % of control | [19] 96 % of control

COc1ccccc1C(=O)OCC(=O)c1ccc(-c2ccccc2)cc1
inactive: [6] 91 % of control | [16] 94 % of control

CNC(=S)N(C)C
inactive: dose: 100.0 mg/kg/injection, schedule: Q04DX003 (ip), vehicle: saline sonified 114 % of control | dose: 200.0 mg/kg/injection, schedule: Q04DX003 (ip), vehicle: saline sonified 103 % of control | dose: 400.0 mg/kg/injection, schedule: Q04DX003 (ip), vehicle: saline sonified 103 % of control

CCCS(=O)(=O)N1CCCCCC1
inactive: dose: 100.0 mg/kg/injection, schedule: Q04DX002 (ip), vehicle: saline with Tween-80 92 % of control | dose: 200.0 mg/kg/injection, schedule: Q04DX002 (ip), vehicle: saline with Tween-80 92 % of control | dose: 400.0 mg/kg/injection, schedule: Q04DX002 (ip), vehicle: saline with Tween-80 92 % of control

CC(=O)Nc1ccn(CC(=O)c2ccco2)c(=O)n1
inactive: [4] 102 % of control | [17] 98 % of control | dose: 200.0 mg/kg/injection, schedule: Q01DX009 (ip), vehicle: saline with Tween-80 102 % of control | [18] 90 % of control | dose: 400.0 mg/kg/injection, schedule: Q01DX009 (ip), vehicle: saline with Tween-80 104 % of control | [19] 93 % of control

CC(=O)Nc1ccc(OCCCCOc2ccccc2)cc1
inactive: [10] 87 % of control | [11] 103 % of control | [12] 97 % of control | [13] 100 % of control | [14] 92 % of control | [15] 97 % of control

Nc1[nH]nc2nc(-c3ccccc3)cnc12
inactive: [2] 121 % of control | [3] 110 % of control | [4] 95 % of control and 102 % of control | [17] 94 % of control | [18] 92 % of control | [19] 92 % of control
